Data on 128 compounds can be found in the OPERA property sets (Mansouri et al. 2018).

Each structure is given as a SMILES string. Converted amounts (≈) assume the structure as drawn.

Conditions in one data set: not given
Usually logP stands for a log measure of how a compound divides between an organic and an aqueous phase. The compound `OCCC(F)(F)C(F)(F)C(F)(F)C(F)(F)C(F)(F)C(F)(F)F` had a log partition coefficient (logP) of 4.54.
Still for that read-out and setting: the result for `CC1(CCl)C2CC(Cl)(Cl)C1(C(Cl)Cl)CC2(Cl)Cl` (stereo unspecified) reads 5.49; that for `COc1cc(Cl)c(Cl)c(Cl)c1O`, 3.72.
The same measure, in the same setting: under `OCCC(F)(F)C(F)(F)C(F)(F)C(F)(F)F` stands 3.3.
The same measure, in the same setting: under `NS(=O)(=O)c1cc2cc(CN3CCOCC3)sc2o1` stands 0.88.
As to `COCC(C)OC(=O)C(N)Cc1ccc(O)c(O)c1` (stereo unspecified), the logP came to 0.08.
Still for that read-out and setting: under `CCCCCCCCCCCCN1CC(C(=O)OC)CC1=O` (stereo unspecified) stands 4.
`NC(N)=Nc1nc(CSCCC(N)=NS(N)(=O)=O)cs1`: the logP is -0.64.
The same measure, in the same setting: the result for `N=c1cc2n(-c3ccc(Cl)cc3)c3ccccc3nc-2cc1Nc1ccc(Cl)cc1` reads 6.47.
As a reminder, the solubility is the dissolved amount per volume that the medium holds. A low value points to little dissolved substance. For `CCc1c(C(=O)O)c(=O)cnn1-c1ccc(Cl)cc1`, the logP was -2.2 and the solubility turned out to be 2510 mM (≈ 700000 µg/mL).
For the compound `Cc1cn(C2CC(O)C(CO)O2)c(=O)[nH]c1=S` (stereo unspecified), the logP was -0.07.
On to `COc1cc2nc(N3CCN(C(=O)C4COc5ccccc5O4)CC3)nc(N)c2cc1OC` (stereo unspecified), for which the log partition coefficient (logP) was determined as 3.3.
As for `COc1ccc(C=O)cc1OC`, the log partition coefficient (logP) stood at 1.22.
On the same count and under the same terms, under `c1ccc(Cn2ccnc2)cc1` stands 1.6; under `CNC(N)=S`, -0.69; under `Cc1cc(Br)cc(C)c1C#[N+][O-]`, 3.63.
On the same count and under the same terms, the result for `Cc1ccc(S(=O)(=O)CC(=O)c2ccccc2)cc1` reads 2.45.
`C=CCN(CC=C)CC=C` had a solubility of 18.2 mM (≈ 2500 µg/mL).
Compound `Nc1cnn(-c2ccccc2)c(=O)c1Cl` registered a logP of 1.14.
Same read-out and setting: under `Cc1c(Cl)cc(C(C)C)c(Cl)c1Cl` stands 6.2; under `OCc1cccc(I)c1`, 2.55.
Regarding `CCOC(=O)CNC(=O)c1cn(CC)c2nc(C)ccc2c1=O`, the logP amounted to 2.07.
On the same count and under the same terms, under `O=c1[nH]c2ccccc2n1CCCN1CCC(n2c(=O)[nH]c3cc(Cl)ccc32)CC1` stands 3.9; under `CCCCCCOC(=O)c1ccc(N)cc1`, 3.96.
`CCNc1nc(NC(C)C)nc(OC)n1` came in with a lipophilicity (logP) of 2.69.
`CCCCC(OC(Cc1ccccc1)C(=O)N1CCC(OCOC)CC1)C(=O)NC(CC1CCCCC1)C(O)CC(C(=O)NCCCNC(=NC#N)NC)C(C)C` (stereo unspecified) came in with a logP of 4.4.
Still for that read-out and setting: the result for `Cc1cccc([N+](=O)[O-])c1C` reads 2.83.
The same measure, in the same setting: under `Cc1cc(C)c(N)cc1C` stands 2.27; under `CNc1ncnc2c1ncn2C1OC(CO)CC1F` (stereo unspecified), 0.27; under `NC(=O)c1cccc2ccccc12`, 1.88.
Same read-out and setting: under `NC(Cc1ccc(O)c(O)c1)C(=O)OCCc1ccc(Cl)cc1` (stereo unspecified) stands 2.33.
For the compound `COc1c2occc2cc2ccc(=O)oc12`, the logP stood at 2.
The same measure, in the same setting: the result for `Cc1ccc(C)c(C)n1` reads 2.05; that for `O=c1[nH]c(=O)n([C@H]2C[C@H](O)[C@@H](CO)O2)cc1I`, -0.96; that for `Clc1cc2c(Cl)c(Cl)c(Cl)c(Cl)c2cc1Cl`, 7.7.
The same measure, in the same setting: the result for `Cc1ncc([N+](=O)[O-])n1C` reads 0.31.
The same measure, in the same setting: the result for `CC(=O)N[C@@H](Cc1ccccc1)C(=O)O` reads 0.93.
`CCCCCOC(=O)c1cccnc1` came in with a logP of 2.55.
On the same count and under the same terms, the result for `OCCOc1cccc2ccccc12` reads 2.5.
On the same count and under the same terms, under `CC(C(=O)O)c1ccc2oc(-c3ccc(Cl)cc3)nc2c1` (stereo unspecified) stands 3.23.
Same read-out and setting: the result for `CSc1ccc2oc(N(N)CCC#N)nc2c1` reads 1.5.
For `Cc1nc(NCC(C)O)c(C#N)cc1-c1ccccc1` (stereo unspecified), the logP amounted to 2.72.
Still for that read-out and setting: under `COC(=O)c1ccccc1CS(N)(=O)=O` stands 0.37; under `CCCC(=O)n1ncc2c(O)ncnc21`, 0.85.
Regarding `CCCCCCc1ccc(N)cc1`, the logP worked out at 4.21.
As for `CCn1cc(C(=O)NC(C(=O)OC)C(C)C)c(=O)c2ccc(C)nc21` (stereo unspecified), the lipophilicity (logP) is 3.61.
The same measure, in the same setting: the result for `Brc1cccc(Oc2ccc(Br)c(Br)c2Br)c1` reads 6.05.
The same measure, in the same setting: under `O=C(O)COc1cccc2ccccc12` stands 2.6.
Same read-out and setting: under `CC1=CC(=O)CC(C)(C)C1` stands 1.7.
`CN(C)P(=O)(N(C)C)N1CCCC1`: the log partition coefficient (logP) turned out to be 0.82.
With `O=P1(N(CCCl)CCCl)NCCCO1` (stereo unspecified), the solubility was 153 mM (≈ 40000 µg/mL).
The compound `Cc1ccccc1C1=CCN(C)CC1` displayed a log partition coefficient (logP) of 3.1.
Consider `CCCN(CCC)C1COc2ccc(O)cc2C1` (stereo unspecified), for which the logP was 3.19.
Same read-out and setting: under `CN1C(=O)CCC1(O)c1cccnc1` (stereo unspecified) stands -0.57; under `N#Cc1cc(-c2ccncc2)cnc1NCCCO`, 1.42.
On the same count and under the same terms, the result for `C1CCC(C2CO2)CC1` (stereo unspecified) reads 2.43; that for `OC(Cn1cncn1)(c1ccc(F)cc1)c1ccccc1F` (stereo unspecified), 2.29.
Consider `CC=O`, for which the lipophilicity (logP) was -0.34.
Still for that read-out and setting: under `Cc1nc(N)c2ncn([C@@H]3O[C@H](CO)C[C@@H]3F)c2n1` stands 0.12; under `CCCCCCN1CCCC1=O`, 2.6.
Same read-out and setting: under `c1ccc2cc3c4ccccc4c4ccccc4c3cc2c1` stands 6.41; under `S=C=Nc1ccc(I)cc1`, 4.22.
For the compound `NC(=O)c1ccccc1NCCCO`, the logP came out at 0.7.
Same read-out and setting: under `Clc1ccc(Cl)c(-c2cc(Cl)c(Cl)cc2Cl)c1` stands 5.68; under `OC(CN1C2CCCC21)Cn1ccnc1` (stereo unspecified), 0.37; under `CCCCOc1ccc([N+](=O)[O-])cc1NC(C)=O`, 2.26.
Regarding `Clc1cc(Cl)c2cc(Cl)cc(Cl)c2c1`, the logP came out at 6.19.
In turn, `Cc1ccc(S(=O)(=O)O)cc1` gave a solubility of 3600 mM (≈ 620000 µg/mL).
In turn, `COc1cc(S(C)=O)ccc1-c1cn2cccnc2n1` (stereo unspecified) came in with a lipophilicity (logP) of 0.63.
Take `C=CC(=O)NCCCN1CCOCC1`: the logP was -0.53.
The same measure, in the same setting: under `NS(=O)(=O)c1nn2c(=Nc3cccc(Cl)c3)snc2s1` stands 3.5; under `COC(=O)c1c[nH]c2ccccc12`, 2.57.
In turn, `CCCCCCCCCCCC` came in with a logP of 6.1.
The compound `CCCCC(NC(Cc1ccccc1)C(=O)N1CCC(OCOC)CC1)C(=O)NC(CC1CCCCC1)C(O)CC(C(=O)NCCNc1n[nH]c(N)n1)C(C)C` (stereo unspecified) gave a log partition coefficient (logP) of 4.2.
In turn, `Nc1cccc(Cl)c1` had a solubility of 42.3 mM (≈ 5400 µg/mL).
`O=C1CC2C(=O)NCC2CN1` (stereo unspecified) had a logP of -2.11.
The same measure, in the same setting: under `CCCCN(C)C(=O)Nc1ccc(Cl)c(Cl)c1` stands 4.1.
Same read-out and setting: the result for `COCCn1cnc2c(=N)n(C)c(=O)[nH]c21` reads -0.96; that for `NS(=O)(=O)c1nn2c(=Nc3cccc(F)c3)snc2s1`, 3.06.
The same measure, in the same setting: under `NS(=O)(=O)c1cc2cc(CNCCO)sc2s1` stands -0.72.

The same data set, now with this note: 20 °C.
For the compound `ClCC(Br)CBr` (stereo unspecified), the solubility came to 4.69 mM (≈ 1110 µg/mL).
The same measure, in the same setting: the result for `CC1CCC(O)CC1` (stereo unspecified) reads 131 mM (≈ 15000 µg/mL); that for `NC(=O)c1ccccc1C(N)=O`, 3.66 mM (≈ 600 µg/mL).
On the same count and under the same terms, under `CCNc1nc(NC(C)C)nc(OC)n1` stands 8.52 mM (≈ 1800 µg/mL).
Same read-out and setting: under `C=C(C)[C@H]1Cc2c(ccc3c2O[C@@H]2COc4cc(OC)c(OC)cc4[C@@H]2C3=O)O1` stands 0.000507 mM (≈ 0.2 µg/mL); under `CCC(Cl)Cl`, 23.9 mM (≈ 2700 µg/mL); under `CCNc1nc(NCC)nc(OC)n1`, 16.2 mM (≈ 3200 µg/mL).

Staying with this data set, now noted: 22.0 °C.
On to `COC(F)(F)C(F)(F)C(F)(F)C(F)(F)F`, for which the log10 OH rate constant (cm³/molecule/s) was -14.1.

Still in this data set, the particulars now being: 23.0 °C.
With `O=C1CC=CO1`, the log10 OH rate constant (cm³/molecule/s) was -10.4.
The same measure, in the same setting: under `CCC(=O)C(O)CC` (stereo unspecified) stands -10.8.
Same read-out and setting: the result for `CC1=CCCC(C)=CCC(C)(C)C=CC1` reads -9.54.

Staying with this data set, now noted: 24.0 °C.
Compound `C[Si](C)(C)O[Si](C)(C)C` gave a log10 OH rate constant (cm³/molecule/s) of -11.9.
On the same count and under the same terms, the result for `Clc1cccc(-c2cccc(Cl)c2)c1` reads -11.4; that for `Clc1cc(Cl)cc(-c2ccccc2)c1`, -11.4.

The data set is the same for the next values; noted with them: 25 °C.
`CCCCN(CCO)CCCC` came in with a solubility of 23.1 mM (≈ 4000 µg/mL).
Same read-out and setting: the result for `O=P(Oc1ccccc1)(Oc1ccccc1)Oc1ccccc1` reads 0.00582 mM (≈ 1.9 µg/mL).
Compound `CCCOC(=O)COc1ccc(Cl)cc1Cl` came in with a solubility of 0.0562 mM (≈ 14.8 µg/mL).
Still for that read-out and setting: the result for `CCC(CO)(CO)COCC(CC)(CO)CO` reads 104 mM (≈ 26000 µg/mL).
On the same count and under the same terms, under `BrC1CCCCC1` stands 5.08 mM (≈ 828 µg/mL).
Still for that read-out and setting: under `C[Si](C)(C)O[Si](C)(C)C` stands 0.00573 mM (≈ 0.93 µg/mL).
The compound `CC(=O)OCC(=O)[C@@]1(O)CC[C@H]2[C@@H]3CCC4=CC(=O)C=C[C@]4(C)[C@H]3[C@@H](O)C[C@@]21C` returned a solubility of 0.0427 mM (≈ 17.2 µg/mL).
The same measure, in the same setting: the result for `Clc1ccc(-c2ccccc2Cl)cc1` reads 0.00524 mM (≈ 1.17 µg/mL); that for `c1ccc2cnncc2c1`, 384 mM (≈ 50000 µg/mL); that for `CC(Cl)C(Cl)Cl` (stereo unspecified), 12.9 mM (≈ 1900 µg/mL).
On the same count and under the same terms, under `Nc1ccc(-c2ccc(N)c(Cl)c2)cc1Cl` stands 0.0122 mM (≈ 3.1 µg/mL); under `O=[N+]([O-])c1ccc(N=Nc2ccc(O)cc2)cc1`, 0.016 mM (≈ 3.89 µg/mL).
Same read-out and setting: under `ClC(Cl)=C(Cl)C(Cl)(Cl)Cl` stands 0.0684 mM (≈ 17 µg/mL); under `Cc1ccc2cc3ccc4ccccc4c3cc2c1`, 0.000227 mM (≈ 0.055 µg/mL).
`COc1c(O)c(Cl)c(Cl)c(Cl)c1Cl`: the solubility stood at 0.016 mM (≈ 4.2 µg/mL).
Turning to `OCc1cccc2ccccc12`, the solubility came to 18 mM (≈ 2850 µg/mL).
`OCC(Br)CBr` (stereo unspecified) showed a solubility of 239 mM (≈ 52000 µg/mL).
Still for that read-out and setting: the result for `CC(N)=S` reads 2170 mM (≈ 163000 µg/mL).
As to `O=[N+]([O-])c1ccccc1`, the solubility stood at 17 mM (≈ 2090 µg/mL).
On the same count and under the same terms, under `C=C(C)C(=O)OCCCC` stands 5.63 mM (≈ 800 µg/mL).
Still for that read-out and setting: under `CCCCCCCCCCN` stands 3.5 mM (≈ 550 µg/mL); under `O=[N+]([O-])c1ccc2ccccc2c1`, 0.0534 mM (≈ 9.24 µg/mL).

Staying with this data set, now noted: 25.0 °C.
Compound `CC(=O)CC1C(CC=O)C1(C)C` (stereo unspecified) gave a log10 OH rate constant (cm³/molecule/s) of -10.3.
Same read-out and setting: the result for `CCCC=O` reads -10.6; that for `COc1ccc([N+](=O)[O-])cc1`, -11.6.
The same measure, in the same setting: under `CCCCCCCl` stands -11.4.
The same measure, in the same setting: the result for `COCC(C)O` (stereo unspecified) reads -10.7; that for `CC(C)Br`, -12.1.
Take `FC(F)OC(F)F`: the log10 OH rate constant (cm³/molecule/s) is -14.5.
Still for that read-out and setting: the result for `FC(Br)C(F)(F)F` (stereo unspecified) reads -13.8; that for `COC(=O)OC`, -12.5.
The same measure, in the same setting: under `CI` stands -13.1; under `FCC(F)(F)C(F)F`, -14.

Still in this data set, the particulars now being: 27.0 °C.
For the compound `CCC(=O)NC`, the log10 OH rate constant (cm³/molecule/s) was -11.1.
Still for that read-out and setting: under `O=C1C=CC(=O)C=C1` stands -11.3; under `CCC(=O)N(C)C`, -10.7.
